Data reported in US20260272896A1, “ORAL D[…] OF MITRAGYNINE” (LUCKY 4U EXIMS, priority 2023, published 2026).

Assay: Long term storage stability of purified Mitragynine
Format: physicochemical
Settings: stored at 2° C.-8° C.

CC[C@@H]1CN2CCc3c([nH]c4cccc(OC)c34)[C@@H]2C[C@@H]1/C(=C\OC)C(=O)OC [Mitragynine]
Storage stability: stable for long term storage
